# Article PMC9317861, “In Vitro Assessment of Pesticides Toxicity and Data Correlation with Pesticides Physicochemical Properties for Prediction of Toxicity in Gastrointestinal and Skin Contact Exposure” (Toxics, 2022)
# Where two headings read alike, the source gives them in different places.
# What was measured:
# A431 cells = assay: Alamar Blue cell viability/cytotoxicity assay, A431; format: cell-based; details: Homo sapiens
# Excerpt: (§1) To assess the cytotoxic activity of GLY, IMD and IMZ, six cell lines, namely Caco-2 (human epithelial colorectal adenocarcinoma; Cell Lines Service (CLS), Eppelheim, Germany), HepG2 (human hepatocellular carcinoma; ATCC, Rockville, USA), A431 (human epidermoid carcinoma; CLS, Eppelheim, Germany), HaCaT (human keratinocytes, CLS, Eppelheim, Germany), SK-MEL-5 (human skin melanoma; CLS, Eppelheim, Germany), and RAW 264.7 (mouse macrophages, Abelson murine leukaemia virus-induced tumour; CLS, Eppelheim, Germany) cells, were used. All cell lines were cultured in complete culture media, composed of Dulbecco’s Modified Eagle Media (DMEM), supplemented with 1 mM L-glutamine, 10% (v/v) foetal bovine serum (FBS), and antibiotics (penicillin at 100 U/mL, and streptomycin at 100 μg/mL) and maintained in an incubator (5% CO2/95% air; 37 °C, controlled humidity). Cells were grown, in T25 culture flasks, to near confluence.
# (§2) Near confluence, all cell lines, except RAW 264.7 cells, were subjected to enzymatic treatment (trypsin-EDTA) for detachment and subculture, as described by Andreani et al. and by Silva et al., which was stopped using complete culture medium (1:1, trypsin:culture media) as soon as cells were detached. RAW 264.7 cells were scratched off from the culture flasks using a cell scratcher (Orange Scientific; Braine-L’Alleud, Belgium), handling was performed, as described by Silva et al.. Once detached from the flasks, cells were gently separated and re-suspended using a Pasteur pipette, counted using an automated cell counter (TC10™, BIORAD, Lisbon, Portugal). Then, cells were re-suspended in fresh culture media (at 5 × 10^4 cells/mL) and seeded into 96-well microplates (100 µL/well) which were maintained in an incubator, for 48 h (to adhere and stabilize) before being used. For other details, see [24, 25].
# (§3) Alamar Blue® (AB) assay was performed to assess the in vitro effect of the pesticides on cell viability. In summary, cells seeded into 96-well microplates were treated with various concentrations of the pesticides (GLY: 0–1 mM; IMD: 0–1 mM; IMZ: 0–0.3 mM). Test solutions were prepared in FBS-free culture media by diluting the appropriate volume of respective stock solution. A stock solution of GLY was prepared in water (at 40 mM), and stock solutions of IMD and IMZ were prepared in DMSO (at 20 mM). After 24 h or 48 h of exposure, the test solutions were removed and immediately replaced with Alamar Blue solution (100 µL/well; 10% (v/v) in FBS-free medium), followed by an additional 5 h incubation. Then, absorbance was read at 570 and 620 nm using a microplate reader (Multiskan EX; MTX Lab Systems, Inc., Bradenton, FL, USA), and the percentage of AB reduction was calculated according to manufacturers’ instructions, as described. Cell viability was calculated and expressed as percentage of control cells (non-exposed cells).
# HaCaT cells [1] = assay: Alamar Blue cell viability/cytotoxicity assay, HaCaT; format: cell-based; details: Homo sapiens
# Excerpt: as §1, §2, §3
# SK-MEL-5 cells = assay: Alamar Blue cell viability/cytotoxicity assay, SK-MEL-5; format: cell-based, human; details: for IC50: Homo sapiens
# Experimental: (§4) Cells were grown, in T25 culture flasks, to near confluence.
# as §2, §3
# Caco-2 cells [2] = assay: Alamar Blue cell viability/cytotoxicity assay, Caco-2; format: cell-based, human; details: for IC50: Homo sapiens; for cell viability reduction: Caco-2, 300 µM
# Experimental: as §4, §2, §3
# HepG2 cells [3] = assay: Alamar Blue cell viability/cytotoxicity assay, HepG2; format: cell-based, human; details: for IC50: Homo sapiens
# Excerpt: as §1, §2, §3
# RAW 264.7 cells = assay: Alamar Blue cell viability/cytotoxicity assay, RAW 264.7; format: cell-based; details: Mus musculus
# Excerpt: as §1, §2, §3
# [4] = system: Caco-2, HepG2, A431, HaCaT, SK-MEL-5 and RAW 264.7 cells; assay: Alamar Blue cell viability, all tested cell lines; format: cell-based; details: up to 1 mM (highest tested concentration)
# Excerpt: To assess the cytotoxic activity of GLY, IMD and IMZ, six cell lines, namely Caco-2 (human epithelial colorectal adenocarcinoma; Cell Lines Service (CLS), Eppelheim, Germany), HepG2 (human hepatocellular carcinoma; ATCC, Rockville, USA), A431 (human epidermoid carcinoma; CLS, Eppelheim, Germany), HaCaT (human keratinocytes, CLS, Eppelheim, Germany), SK-MEL-5 (human skin melanoma; CLS, Eppelheim, Germany), and RAW 264.7 (mouse macrophages, Abelson murine leukaemia virus-induced tumour; CLS, Eppelheim, Germany) cells, were used. […]
# Near confluence, all cell lines, except RAW 264.7 cells, were subjected to enzymatic treatment (trypsin-EDTA) for detachment and subculture, as described by Andreani et al. and by Silva et al., which was stopped using complete culture medium (1:1, trypsin:culture media) as soon as cells were detached. […] Once detached from the flasks, cells were gently separated and re-suspended using a Pasteur pipette, counted using an automated cell counter (TC10™, BIORAD, Lisbon, Portugal). […]
# Alamar Blue® (AB) assay was performed to assess the in vitro effect of the pesticides on cell viability. […] Then, absorbance was read at 570 and 620 nm using a microplate reader (Multiskan EX; MTX Lab Systems, Inc., Bradenton, FL, USA), and the percentage of AB reduction was calculated according to manufacturers’ instructions, as described. […]
# Caco-2 cells [5] = details: cited from earlier work; for IC50: Caco-2, 24 h
# HepG2 cells [6] = details: cited from earlier work
# SK-MEL-2 = system: SK-MEL-2; set-up: method as in PMID 23535362; details: SK-MEL-2, 72 h exposure; cited from earlier work
# HaCaT cells [7] = details: cited from earlier work
# [8] = cited from earlier work
# [9] = Alamar Blue cell viability/cytotoxicity assay, SK-MEL-5; format: cell-based, human; details: human; SK-MEL-5, 50 µM, 48 h
# Experimental: as §4, §2, §3
# [10] = Alamar Blue cell viability/cytotoxicity assay, Caco-2; format: cell-based, human; details: human, 48 h
# Experimental: as §4, §2, §3
# [11] = n-octanol/water; Pubchem and INCHEM; cited from earlier work
# [12] = Figure 4A; cited from earlier work
# [13] = cited from earlier work; remark: listed apart in the source
# CYP3A4 = system: CYP3A4; set-up: method as in PMID 19070657; details: cited from earlier work
smiles,measurement,setting,value
"O=C(O)CNCP(=O)(O)O [Glyphosate, N-phosphonomethyl-glycine]",IC50,"A431 cells; A-431, 24 h",> 1000 µM
same,IC50,"A431 cells; A-431, 48 h",> 1000 µM
same,IC50,HaCaT cells [1]; 24 h,> 1000 µM
same,IC50,HaCaT cells [1]; 48 h,> 1000 µM
same,IC50,"SK-MEL-5 cells; SK-MEL-5, 24 h",> 1000 µM
same,IC50,"SK-MEL-5 cells; SK-MEL-5, 48 h",> 1000 µM
same,reduction in cell viability,"SK-MEL-5 cells; SK-MEL-5, 1 mM, 24 h",23.3%
same,reduction in cell viability,"SK-MEL-5 cells; SK-MEL-5, 1 mM, 48 h",18.7%
same,effect on cell viability,"Caco-2 cells [2]; Caco-2, concentrations up to 1 mM, 24 h or 48 h",no significant reduction in cell viability
same,IC50,"Caco-2 cells [2]; Caco-2, 24 h",> 1000 µM
same,IC50,"Caco-2 cells [2]; Caco-2, 48 h",> 1000 µM
same,effect on cells,"HepG2 cells [3]; HepG2, concentrations up to 1 mM",not affected
same,IC50,"HepG2 cells [3]; HepG2, 24 h",> 1000 µM
same,IC50,"HepG2 cells [3]; HepG2, 48 h",> 1000 µM
same,IC50,"RAW 264.7 cells; RAW264.7, 24 h",> 1000 µM
same,IC50,"RAW 264.7 cells; RAW264.7, 48 h",> 1000 µM
same,effect on cell viability,[4],did not reduce cell viability
same,effect on cell viability,[4]; listed as GLY,not able to induce cell death below 50%
same,concentrations that disrupted Caco-2 monolayers (loss of membrane integrity),Caco-2 cells [5]; conversion of mg/mL value,> 59000 µM
same,concentrations that disrupted Caco-2 monolayers (loss of membrane integrity),Caco-2 cells [5],higher than 10 mg/mL
same,effect on cell proliferation,"HepG2 cells [6]; HepG2, up to 3.5 µg/mL (20.7 µM), 4 h and 24 h",slight increase in cell proliferation
same,IC50,SK-MEL-2,11 µM
same,IC50,HaCaT cells [7]; 18 h exposure,30000 µM
same,solubility in organic solvents,[8],very low solubility in organic solvents
"C=CCOC(Cn1ccnc1)c1ccc(Cl)cc1Cl (centres unmarked) [Imazalil, imazalil]",IC50,"A431 cells; A-431, A431, 24 h exposure, mean ± S.D., read-out: IC50",145 ± 1.7 µM
same,IC50,"A431 cells; A-431, A431, 48 h exposure, mean ± S.D., read-out: IC50",117 ± 6.5 µM
same,IC50,"HaCaT cells [1]; 24 h exposure, mean ± S.D., read-out: IC50",174 ± 15.3 µM
same,IC50,"HaCaT cells [1]; 48 h exposure, mean ± S.D., read-out: IC50",120 ± 6.2 µM
same,"viability at 48 h, 50 µM",[9],~80%
same,IC50,"SK-MEL-5 cells; SK-MEL-5, 24 h exposure, mean ± S.D., read-out: IC50",156 ± 9 µM
same,IC50,"SK-MEL-5 cells; SK-MEL-5, 48 h exposure, mean ± S.D., read-out: IC50",76.7 ± 1.8 µM
same,reduction in cell viability,"SK-MEL-5 cells; SK-MEL-5, 50 µM, 48 h",about 20%
same,"viability at 48 h, 200 µM","[10]; Caco-2, 200 µM",39.7%
same,cell viability reduction,Caco-2 cells [2]; 24 h,94.13%
same,cell viability reduction,Caco-2 cells [2]; 48 h,98.06%
same,IC50,"Caco-2 cells [2]; Caco-2, 24 h exposure, mean ± S.D., read-out: IC50",254 ± 3.4 µM
same,IC50,"Caco-2 cells [2]; Caco-2, 48 h exposure, mean ± S.D., read-out: IC50",186 ± 2.27 µM
same,concentration at which a significant reduction in cell viability was observed,HepG2 cells [3]; HepG2,50 µM
same,IC50,"HepG2 cells [3]; HepG2, 24 h exposure, mean ± S.D., read-out: IC50",93.7 ± 2.2 µM
same,IC50,"HepG2 cells [3]; HepG2, 48 h exposure, mean ± S.D., read-out: IC50",47.1 ± 0.5 µM
same,IC50,"RAW 264.7 cells; RAW264.7, RAW 264.7, 24 h exposure, mean ± S.D., read-out: IC50",31.3 ± 2.7 µM
same,IC50,"RAW 264.7 cells; RAW264.7, RAW 264.7, 48 h exposure, mean ± S.D., read-out: IC50",7.21 ± 4.5 µM
same,IC50,"Caco-2 cells [5]; conversion of µg/mL value, read-out: IC50",~100 µM
same,IC50,Caco-2 cells [5],30 µg/mL
same,log Pow,[11],4.56
same,H-donor acceptor count,[12],2
same,pKa,[13],6.53
same,CYP3A4 inhibition,CYP3A4,inhibit CYP3A4
"O=[N+]([O-])NC1=NCCN1Cc1ccc(Cl)nc1 [Imidacloprid, imidacloprid]",IC50,"A431 cells; A-431, 24 h",573 ± 10.4 µM
same,IC50,"A431 cells; A-431, 48 h",389 ± 9.2 µM
same,IC50,HaCaT cells [1]; 24 h,495 ± 19.4 µM
same,IC50,HaCaT cells [1]; 48 h,482 ± 12.9 µM
same,IC50,"SK-MEL-5 cells; SK-MEL-5, 24 h",507 ± 22.1 µM
same,IC50,"SK-MEL-5 cells; SK-MEL-5, 48 h",319 ± 11.5 µM
same,reduction in cell viability,"SK-MEL-5 cells; SK-MEL-5, 600 µM, 48 h",~ 88%
same,"viability at 48 h, 600 µM","[10]; Caco-2, 600 µM, read-out: cell viability (% of control)",68.5%
same,"viability at 48 h, 1 mM","[10]; Caco-2, 1 mM, read-out: cell viability (% of control)",27.3%
same,IC50,"Caco-2 cells [2]; Caco-2, 24 h",> 1000 µM
same,IC50,"Caco-2 cells [2]; Caco-2, 48 h",832 ± 29.6 µM
same,IC50,"HepG2 cells [3]; HepG2, 24 h",624 ± 24.3 µM
same,IC50,"HepG2 cells [3]; HepG2, 48 h",620 ± 10.6 µM
same,IC50,"RAW 264.7 cells; RAW264.7, 24 h",306 ± 22.4 µM
same,IC50,"RAW 264.7 cells; RAW264.7, 48 h",307 ± 22.1 µM
same,cell viability,"Caco-2 cells [5]; Caco-2, 96 h, 0.25 µg/mL",81%
same,concentrations cytotoxic / reducing cell viability,"Caco-2 cells [5]; Caco-2, 96 h, conversion of µg/mL value",> 0.98 µM
same,concentrations cytotoxic / reducing cell viability,"Caco-2 cells [5]; Caco-2, 96 h, formulation from Bayer",above 0.25 µg/mL
same,concentration range dose-dependently reducing cell viability,"HepG2 cells [6]; HepG2, 24 h",500 to 2000 µM
same,concentration range dose-dependently reducing cell viability,"HepG2 cells [6]; HepG2, 48 h",250 to 2000 µM
same,concentration reducing cell viability below 50%,HaCaT cells [7]; 24 h,2350 µM
same,log Pow,[11],0.57
same,H-donor acceptor count,[12],4
